Source: patent publication US20150366998A1, “ORAL DELIVERY OF DRUG ACTIVES IN LABORATORY ANIMALS USING FAST-DISSOLVING ORAL FILMS” (priority 2014, published 2015)
Entries after “also recorded” stand apart in the source; their conditions may differ.

Columns and labels:
[1] = system: female WT mice; test: 24-h two-bottle choice paradigm, 10% ethanol in water (10E) vs water, IVM oral thin film or gavage; format: in vivo
[2] = 30-day oral film study: body weight, food intake, organ weight to tibia length ratio, tolerability; format: in vivo, mice
Excerpt: In this study, there were 4 groups.
IVM was given for 30 days, 5 times per week for 6 weeks. […] After being presented with the tip of the gavage needle, mice would self-administer the oral films.
Ethanol intake was expressed as g/kg/24-h and summarized using means±SEM across groups. A two-way ANOVA was used to analyze 10E intake between the 4 groups over the 30 days of treatment. A one-way ANOVA was used to compare mean 10E intake, 10E preference, water intake, fluid intake, food intake, mouse weight, and organ weight/tibia length ratio across the 4 groups. GraphPAD Prism software (San Diego, Calif.) was used for data analysis.

[3] = system: mice; conditions: cited from earlier work
[4] = IVM 0.21 mg oral thin film, 30 days, vs control and placebo groups
[5] = doses needed to produce the anti-alcohol effects (Bortolato 2013)

Question: For `CC[C@H](C)[C@H]1O[C@]2(CC[C@@H]1C)C[C@@H]1C[C@@H](C/C=C(\C)[C@@H](O[C@H]3C[C@H](OC)[C@@H](O[C@H]4C[C@H](OC)[C@@H](O)[C@H](C)O4)[C@H](C)O3)[C@@H](C)/C=C/C=C3\CO[C@@H]4[C@H](O)C(C)=C[C@@H](C(=O)O1)[C@]34O)O2` [IVM, ivermectin], which “10E (alcohol) intake” value ([1]; IVM 0.21 mg oral thin film, 30 days, 5 times per week for 6 weeks, vs no action and placebo film) is on record?
Answer: drank consistently less 10E; also recorded: effective in reducing 10E intake; also recorded: significantly reduces

Question: What about the 10E preference [1, 4] of the same compound?
Answer: significantly less; also recorded: significantly reduces

Question: And the total fluid intake [1, 4]?
Answer: similar; also recorded: without significantly affecting

Question: And the “decrease of 10E intake compared to baseline” value ([1]; IVM 0.21 mg via fast dissolving oral film, 24-h two bottle choice, female WT mice, n=8, p<0.001 vs baseline)?
Answer: approximately 40%

Question: And the 10E intake ([1]; IVM 5 mg/kg, oral gavage (placebo gavage corn oil))?
Answer: decreased 10E intake

Question: And the “organ weight to tibia length ratio” value ([2]; IVM 0.21 mg oral thin film, 30 days, 6 organs analyzed, vs control and placebo groups)?
Answer: no significant difference; also recorded: without significantly affecting

Question: And the “animal weight gain / change in body weight” value ([2]; IVM 0.21 mg oral thin film, 30 days, vs no action and placebo)?
Answer: similar; also recorded: without significantly affecting

Question: And the “tolerability / overt signs of toxicity” value ([2]; chronic (30 day) oral administration of IVM via oral film)?
Answer: well tolerated; also recorded: without causing overt signs of toxicity

Question: And the “rewarding properties (addiction liability)” value ([3]; IVM regimen producing anti-alcohol effects)?
Answer: did not exert rewarding properties

Question: What about the “ethanol intake in mice” value ([3]; acute and 7 day administration (Yardley 2012)) of the same compound?
Answer: significantly reduce

Question: What about the anxiolytic-like effects [3, 5] of the same compound?
Answer: elicited anxiolytic-like effects

Question: What about the “overt signs of toxicity” value [3, 5] of the same compound?
Answer: did not induce overt signs of toxicity
